Source: the NIST ThermoML archive (doi:10.1016/j.jct.2015.11.020)
± gives the expanded uncertainty stated by the source.

Experiment: mn = molality of the nth substance listed, in mol/kg
Conditions: 100 kPa, Liquid; for speed of sound: Frequency=3 MHz, Sing-around technique in a fixed-path interferometer; for mass density: Vibrating tube method

**Q.** Which speed of sound (305.15 K, m1 = 0.09989) does the source give for C[C@@H](O)[C@H](N)C(=O)O [L-threonine] + O here?
**A.** The speed of sound was 1521 ± 1.5 m/s.

**Q.** And the speed of sound (305.15 K, m1 = 0.1997)?
**A.** The speed of sound was 1528 ± 1.5 m/s.

**Q.** And the speed of sound (305.15 K, m1 = 0.2989)?
**A.** The speed of sound was 1535 ± 1.6 m/s.

**Q.** And the speed of sound (305.15 K, m1 = 0.3989)?
**A.** Its speed of sound is 1542.2 ± 1.6 m/s.

**Q.** And the speed of sound (305.15 K, m1 = 0.5002)?
**A.** Its speed of sound is 1549.1 ± 1.7 m/s.

**Q.** And the speed of sound (305.15 K, m1 = 0.5982)?
**A.** Its speed of sound is 1555.7 ± 1.7 m/s.

**Q.** What about the speed of sound (305.15 K, m1 = 0.6471) of the same compound?
**A.** The speed of sound was 1559 ± 1.7 m/s.

**Q.** What about the speed of sound (305.15 K, m1 = 0.7007) of the same compound?
**A.** Its speed of sound is 1562.4 ± 1.8 m/s.

**Q.** What about the speed of sound (305.15 K, m1 = 0.7476) of the same compound?
**A.** The speed of sound was 1565.7 ± 1.9 m/s.

**Q.** And the speed of sound (305.15 K, m1 = 0.7854)?
**A.** The speed of sound was 1568.4 ± 1.9 m/s.

**Q.** And the mass density (305.15 K, m1 = 0.09989)?
**A.** The mass density was 999.283 ± 1 kg/m3.

**Q.** And the mass density (305.15 K, m1 = 0.1997)?
**A.** Its mass density is 1003.52 ± 1 kg/m3.

**Q.** What about the mass density (305.15 K, m1 = 0.2989) of the same compound?
**A.** The mass density was 1007.74 ± 1 kg/m3.

**Q.** What about the mass density (305.15 K, m1 = 0.3989) of the same compound?
**A.** Its mass density is 1011.99 ± 1.1 kg/m3.

**Q.** And the mass density (305.15 K, m1 = 0.5002)?
**A.** The mass density was 1016.3 ± 1.1 kg/m3.

**Q.** What about the mass density (305.15 K, m1 = 0.5982) of the same compound?
**A.** The mass density was 1020.46 ± 1.1 kg/m3.

**Q.** And the mass density (305.15 K, m1 = 0.6471)?
**A.** Its mass density is 1022.54 ± 1.2 kg/m3.

**Q.** What about the mass density (305.15 K, m1 = 0.7007) of the same compound?
**A.** The mass density was 1024.82 ± 1.2 kg/m3.

**Q.** And the mass density (305.15 K, m1 = 0.7476)?
**A.** Its mass density is 1026.81 ± 1.2 kg/m3.

**Q.** What about the mass density (305.15 K, m1 = 0.7854) of the same compound?
**A.** The mass density was 1028.42 ± 1.2 kg/m3.

**Q.** What about the speed of sound (310.15 K, m1 = 0.09989) of the same compound?
**A.** Its speed of sound is 1530.7 ± 1.5 m/s.

**Q.** And the speed of sound (310.15 K, m1 = 0.1997)?
**A.** Its speed of sound is 1537.5 ± 1.5 m/s.

**Q.** And the speed of sound (310.15 K, m1 = 0.2989)?
**A.** Its speed of sound is 1544.6 ± 1.6 m/s.

**Q.** And the speed of sound (310.15 K, m1 = 0.3989)?
**A.** The speed of sound was 1551.1 ± 1.6 m/s.

**Q.** And the speed of sound (310.15 K, m1 = 0.5002)?
**A.** The speed of sound was 1558.1 ± 1.7 m/s.

**Q.** And the speed of sound (310.15 K, m1 = 0.5982)?
**A.** The speed of sound was 1564.8 ± 1.7 m/s.

**Q.** What about the speed of sound (310.15 K, m1 = 0.6471) of the same compound?
**A.** The speed of sound was 1567.9 ± 1.8 m/s.

**Q.** What about the speed of sound (310.15 K, m1 = 0.7007) of the same compound?
**A.** Its speed of sound is 1571.7 ± 1.8 m/s.

**Q.** And the speed of sound (310.15 K, m1 = 0.7476)?
**A.** Its speed of sound is 1575.1 ± 1.9 m/s.

**Q.** And the speed of sound (310.15 K, m1 = 0.7854)?
**A.** Its speed of sound is 1577.8 ± 1.8 m/s.

**Q.** What about the mass density (310.15 K, m1 = 0.09989) of the same compound?
**A.** The mass density was 997.513 ± 1 kg/m3.

**Q.** What about the mass density (310.15 K, m1 = 0.1997) of the same compound?
**A.** The mass density was 1001.69 ± 1 kg/m3.

**Q.** And the mass density (310.15 K, m1 = 0.2989)?
**A.** Its mass density is 1005.85 ± 1 kg/m3.

**Q.** And the mass density (310.15 K, m1 = 0.3989)?
**A.** Its mass density is 1010.04 ± 1.1 kg/m3.

**Q.** And the mass density (310.15 K, m1 = 0.5002)?
**A.** The mass density was 1014.29 ± 1.1 kg/m3.

**Q.** And the mass density (310.15 K, m1 = 0.5982)?
**A.** Its mass density is 1018.39 ± 1.1 kg/m3.

**Q.** And the mass density (310.15 K, m1 = 0.6471)?
**A.** Its mass density is 1020.44 ± 1.2 kg/m3.

**Q.** What about the mass density (310.15 K, m1 = 0.7007) of the same compound?
**A.** Its mass density is 1022.69 ± 1.2 kg/m3.

**Q.** What about the mass density (310.15 K, m1 = 0.7476) of the same compound?
**A.** The mass density was 1024.65 ± 1.2 kg/m3.

**Q.** And the mass density (310.15 K, m1 = 0.7854)?
**A.** Its mass density is 1026.23 ± 1.3 kg/m3.

**Q.** What about the speed of sound (315.15 K, m1 = 0.09989) of the same compound?
**A.** The speed of sound was 1538.9 ± 1.5 m/s.

**Q.** And the speed of sound (315.15 K, m1 = 0.1997)?
**A.** Its speed of sound is 1545.4 ± 1.5 m/s.

**Q.** What about the speed of sound (315.15 K, m1 = 0.2989) of the same compound?
**A.** The speed of sound was 1552 ± 1.6 m/s.

**Q.** And the speed of sound (315.15 K, m1 = 0.3989)?
**A.** Its speed of sound is 1559 ± 1.6 m/s.

**Q.** And the speed of sound (315.15 K, m1 = 0.5002)?
**A.** The speed of sound was 1566 ± 1.7 m/s.

**Q.** And the speed of sound (315.15 K, m1 = 0.5982)?
**A.** The speed of sound was 1573.1 ± 1.7 m/s.

**Q.** And the speed of sound (315.15 K, m1 = 0.6471)?
**A.** Its speed of sound is 1576.5 ± 1.8 m/s.

**Q.** What about the speed of sound (315.15 K, m1 = 0.7007) of the same compound?
**A.** Its speed of sound is 1580.1 ± 1.8 m/s.

**Q.** What about the speed of sound (315.15 K, m1 = 0.7476) of the same compound?
**A.** Its speed of sound is 1583.3 ± 1.8 m/s.

**Q.** And the speed of sound (315.15 K, m1 = 0.7854)?
**A.** The speed of sound was 1585.9 ± 1.9 m/s.

**Q.** And the mass density (315.15 K, m1 = 0.09989)?
**A.** Its mass density is 995.687 ± 1 kg/m3.

**Q.** What about the mass density (315.15 K, m1 = 0.1997) of the same compound?
**A.** Its mass density is 999.928 ± 1 kg/m3.

**Q.** And the mass density (315.15 K, m1 = 0.2989)?
**A.** The mass density was 1004.15 ± 1 kg/m3.

**Q.** What about the mass density (315.15 K, m1 = 0.3989) of the same compound?
**A.** Its mass density is 1008.4 ± 1.1 kg/m3.

**Q.** And the mass density (315.15 K, m1 = 0.5002)?
**A.** Its mass density is 1012.7 ± 1.1 kg/m3.

**Q.** What about the mass density (315.15 K, m1 = 0.5982) of the same compound?
**A.** Its mass density is 1016.87 ± 1.1 kg/m3.

**Q.** And the mass density (315.15 K, m1 = 0.6471)?
**A.** The mass density was 1018.94 ± 1.2 kg/m3.

**Q.** What about the mass density (315.15 K, m1 = 0.7007) of the same compound?
**A.** Its mass density is 1021.22 ± 1.2 kg/m3.

**Q.** What about the mass density (315.15 K, m1 = 0.7476) of the same compound?
**A.** Its mass density is 1023.22 ± 1.2 kg/m3.

**Q.** What about the mass density (315.15 K, m1 = 0.7854) of the same compound?
**A.** The mass density was 1024.82 ± 1.2 kg/m3.
